≈ marks a conversion by molar mass, not a printed value. Positions of bridges follow the written chain, without caps; N, C: chain ends. Non-standard residues stand in square brackets, D forms with d. Residues, ends and D or L forms follow the SMILES beside them. *: point of attachment. Decanoyl(3R-OH) = CCCCCCC[C@@H](O)CC(=O)*; dPhe(3-Cl) = N[C@H](Cc1cccc(Cl)c1)C(=O)O; hPhe = N[C@@H](CCc1ccccc1)C(=O)O; dDab = NCC[C@@H](N)C(=O)O; dDap = NC[C@@H](N)C(=O)O; Dab = NCC[C@H](N)C(=O)O
Experiments:
A. baumannii ATCC 19606 = conditions: ATCC 19606
How it was run: (§1)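 Mid-log cultures grown in Mueller Hinton broth at 37° C were tested by 2-fold broth microdilution at 5×10^5 CFU/mL final. Compounds were dissolved in water and tested over a final range of 32 to 0.015 μg/mL.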

[1] = system: S. aureus ATCC 25923, MSSA; conditions: ATCC 25923
How it was run: as §1

K. pneumoniae ATCC 13883 = conditions: ATCC 13883
How it was run: as §1

[2] = system: K. pneumoniae GN_106, PmxR; conditions: GN 106, PmxR
How it was run: as §1

[3] = system: K. pneumoniae GN_102 PmxR; conditions: GN 102 PmxR
How it was run: as §1

A. baumannii GN_093 PmxR = conditions: GN 093 PmxR
How it was run: as §1

[4] = system: P. aeruginosa GN_043, PmxR; conditions: polymyxin-resistant
How it was run: as §1

P. aeruginosa ATCC 27853 = conditions: ATCC 27853
How it was run: as §1

E. coli ATCC 25922 = conditions: ATCC 25922
How it was run: as §1

[5] = system: P. aeruginosa GN_105, PmxR; conditions: GN 105, PmxR
How it was run: as §1

[6] = system: K. pneumoniae ATCC BAA-2146, NDM-1 pos; conditions: ATCC BAA-2146
How it was run: as §1

[7] = system: K. pneumoniae ATCC 700603, MDR; conditions: ATCC 700603
How it was run: as §1

in vitro = conditions: human
How it was run: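 4000 cells/well, 24 h attach (37 °C, 5% CO2); compound 24 h; 5 μM resazurin 2 h, 37 °C; fluorescence ex/em 560/590. CC50 by curve fit.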

Neisseria gonorrhoeae = test: MIC determination, Neisseria gonorrhoeae; type: cell-based; conditions: for MIC N. gonorrhoeae FA19 ATCC BAA-1838: strain FA19 ATCC BAA-1838
Experimental: Bacteria were either obtained from American Type Culture Collection (ATCC; Manassas, Va., USA) or independent academic clinical isolate collections, as listed in Table 18 below. Bacteria were cultured in Nutrient broth (NB; Bacto Laboratories, catalogue No. 234000) or Mueller Hinton broth (MHB; Bacto Laboratories, catalogue No. 211443) at 37° C. overnight with shaking (˜180 RPM). A sample of each culture was then diluted 50-fold in fresh MHB and incubated at 37° C. for 2-3 h with shaking (˜180 RPM). Compound stock solutions were prepared as 0.64 mg/mL or 2.56 mg/mL in water. The compounds, at twice the final desired concentration, were serially diluted 2-fold across the wells of 96-well plates (Polystyrene, Corning, catalogue No. 3370). Mid-log phase bacterial cultures (after 2-3 h incubation) were diluted to a final concentration of 1×10^6 colony forming units (CFU)/mL, and 50 μL was added to each well giving a final cell density of 5×10^5 and a compound concentration range of 32 μg/mL to 0.015 μg/mL (128-0.06 μg/mL against P. aeruginosa PA9704).

| SMILES | MIC A. baumannii ATCC 19606 (A. baumannii ATCC 19606) [µg/mL] | MIC S. aureus ATCC 25923, MSSA [1] [µg/mL] | MIC K. pneumoniae ATCC 13883 (K. pneumoniae ATCC 13883) [µg/mL] | MIC K. pneumoniae GN_106, PmxR [2] [µg/mL] | MIC K. pneumoniae GN_102 PmxR [3] [µg/mL] | MIC A. baumannii GN_093 PmxR (A. baumannii GN_093 PmxR) [µg/mL] | MIC P. aeruginosa GN_043, PmxR [4] [µg/mL] | MIC P. aeruginosa ATCC 27853 (P. aeruginosa ATCC 27853) [µg/mL] | MIC E. coli ATCC 25922 (E. coli ATCC 25922) [µg/mL] | MIC P. aeruginosa GN_105, PmxR [5] [µg/mL] | MIC K. pneumoniae ATCC BAA-2146, NDM-1 pos [6] [µg/mL] | MIC K. pneumoniae ATCC 700603, MDR [7] [µg/mL] | CC50 at 24 h (in vitro) [µM] | MIC N. gonorrhoeae FA19 ATCC BAA-1838 (Neisseria gonorrhoeae) [µg/mL] | MIC N. gonorrhoeae F89 (Neisseria gonorrhoeae; strain F89) [µg/mL] | MIC N. gonorrhoeae FA1090 A25 ATCC 700825 (Neisseria gonorrhoeae; strain FA1090 A25 ATCC 700825) [µg/mL] | MIC N. gonorrhoeae H041 (Neisseria gonorrhoeae; strain H041) [µg/mL] |
| --- | --- | --- | --- | --- | --- | --- | --- | --- | --- | --- | --- | --- | --- | --- | --- | --- | --- |
| CCCCCCC[C@@H](O)CC(=O)N[C@H](CCN)C(=O)N[C@H]1CCNC(=O)[C@H](CCc2ccccc2)NC(=O)[C@H](CCN)NC(=O)[C@H](CCN)NC(=O)[C@H](CC(C)C)NC(=O)[C@@H](Cc2ccccc2)NC(=O)[C@H](CCN)NC1=O [compound 8913, 3(R)OH-nC9CO-D-Dab-cyc[L-Dab-L-Dab-D-Phe-L-Leu-L-Dab-L-Dab-L-hPhe]] ({Decanoyl(3R-OH)}-[dDab][Dab][Dab][dF]L[Dab][Dab][hPhe]; lactam 2-C) | 8 (≈ 7.32 µM) | 4 (≈ 3.66 µM) | 4 (≈ 3.66 µM) | 2 (≈ 1.83 µM) | 2 (≈ 1.83 µM) | 4 (≈ 3.66 µM) | 4 (≈ 3.66 µM) | 2 (≈ 1.83 µM) | 2 (≈ 1.83 µM) | 2 (≈ 1.83 µM) | 4 (≈ 3.66 µM) | 4 (≈ 3.66 µM) | 32 | 1.56 (≈ 1.43 µM) |  |  |  |
| CCCCCCC[C@@H](O)CC(=O)N[C@H](CN)C(=O)N[C@H]1CCNC(=O)[C@H](Cc2c[nH]c3ccccc23)NC(=O)[C@H](CCN)NC(=O)[C@H](CCN)NC(=O)[C@H](CC(C)C)NC(=O)[C@@H](Cc2ccccc2)NC(=O)[C@H](CCN)NC1=O [compound 8886, 3(R)OH-nC9CO-D-Dap-cyc[L-Dab-L-Dab-D-Phe-L-Leu-L-Dab-L-Dab-L-Trp]] ({Decanoyl(3R-OH)}-[dDap][Dab][Dab][dF]L[Dab][Dab]W; lactam 2-C) | 8 (≈ 7.25 µM) | 4 (≈ 3.63 µM) | 4 (≈ 3.63 µM) | 4 (≈ 3.63 µM) | 4 (≈ 3.63 µM) | 8 (≈ 7.25 µM) | 2 (≈ 1.81 µM) | 2 (≈ 1.81 µM) | 2 (≈ 1.81 µM) | 1 (≈ 0.906 µM) | 4 (≈ 3.63 µM) | 4 (≈ 3.63 µM) | 95 | 0.39 (≈ 0.353 µM) | 1.04 (≈ 0.943 µM) | 0.91 (≈ 0.825 µM) | 1.04 (≈ 0.943 µM) |
| CCCCCCC[C@@H](O)CC(=O)N[C@H](CCN)C(=O)N[C@H]1CCNC(=O)[C@H](Cc2c[nH]c3ccccc23)NC(=O)[C@H](CCN)NC(=O)[C@H](CCN)NC(=O)[C@H](CC(C)C)NC(=O)[C@@H](Cc2cccc(Cl)c2)NC(=O)[C@H](CCN)NC1=O [compound 8914, 3(R)OH-nC9CO-D-Dab-cyc[L-Dab-L-Dab-D-Phe(3-Cl)-L-Leu-L-Dab-L-Dab-L-Trp]] ({Decanoyl(3R-OH)}-[dDab][Dab][Dab][dPhe(3-Cl)]L[Dab][Dab]W; lactam 2-C) | 4 (≈ 3.47 µM) | 2 (≈ 1.74 µM) | 2 (≈ 1.74 µM) | 4 (≈ 3.47 µM) | 4 (≈ 3.47 µM) | 4 (≈ 3.47 µM) | 4 (≈ 3.47 µM) | 2 (≈ 1.74 µM) | 2 (≈ 1.74 µM) | 1 (≈ 0.868 µM) | 4 (≈ 3.47 µM) | 2 (≈ 1.74 µM) | 25 | 0.78 (≈ 0.677 µM) |  |  |  |

Reference: patent US11279733B2, “Peptide antibiotics” (priority 2017, dated 2022)
